In data set [1] the test system is HER2+ breast cancer cells. The experiment in a line: Growth factor-driven lapatinib resistance in HER2+ breast cancer cells (NRG, EGF). Type of data set: cell-based, human.
Another data set concerns SKBR3 xenograft. In words: SKBR3 xenograft tumor growth in NOD/SCID mice (mammary fat pad injection). Type of data set: in vivo. To be noted: 12 mg/kg, day 28, p<0.01.
The test system of a further data set is MDA-MB-231 cells. The experiment in a line: MDA-MB-231 tail vein metastasis model in NOD/SCID mice. It counts as in vivo. To be noted: 12 mg/kg per day, oral. As for the experimental part: FIG. 24A-24D. […] (24A) 10^6 MDA-MB-231 cells in 100 μl PBS were injected into the tail vein of 4-5 week old female NOD/SCID mice (Jackson Labs). Injected animals were randomly assigned to control or experimental groups. Starting at time of tail vein injection, mice were treated with vehicle or ibrutinib (12 mg/kg per day, oral). At end point, mice were euthanized and bones and organs collected for histological analysis. Note that all bone metastases in control groups led to the development of paralysis (5/16, n=16 per group). […] Thin section of a tumor arising in an untreated control animal.
More specifically, 10^6 MDA-MB-231 (Her2-) cells in 100 μl PBS were injected into the tail vein of 4-5 week old female NOD/SCID mice (Jackson Labs). Injected animals were randomly assigned to control or experimental groups. Starting at time of tail vein injection, mice were treated with vehicle or ibrutinib (12 mg/kg per day, oral). At end point, mice were euthanized then bones and organs collected for histological analysis. Note that bone metastases in control groups led to the development of paralysis (5/16, n=16 per group).

A further data set concerns BTK-A and BTK-C proteins. In words: BTK Tyr223 auto-phosphorylation, anti-Flag IP and Western blot in BT474 cells over-expressing BTK-A-flag or BTK-C-flag. It counts as cell-based, human.
Data set [2] has as its system BT474 cells. In words: Cleaved caspase-3 apoptosis assay in BT474 cells. It counts as cell-based, human. As for the experimental part: For high-throughput experiments, cells grown on 96-well plates were washed once with 1×PBS, fixed with 2.5% formaldehyde and stained with Hoechst 33342 (Molecular Probes-Invitrogen). Cell images were acquired using an In Cell Analyzer 1000 (GE Healthcare) high content imaging system, with a 20× objective. At least 50 fields were imaged per single experiment. Cell counts and statistics were then performed using the In Cell Investigator 3.4 high-content image analysis software (GE Healthcare). Apoptosis was detected by cleaved Caspase-3 after 48 h to 96 h of shRNA treatments. […] Control cells were treated with DMSO. For the cleaved caspase-3 assay, cells were fixed after treatment with 2.5% formaldehyde, washed with 1×PBS, permeabilized with 0.1% Triton-X 100 (Fisher Chemicals), blocked with 3% normal goat serum (Sigma-Aldrich), incubated with a 1:50-1:200 dilution of the primary antibody, washed with 1×PBS, incubated with a 1:800 dilution of the secondary antibody, washed again with 1×PBS and finally stained with Hoechst 33342 (Molecular Probes-Invitrogen). Cells were imaged by the In Cell Analyzer 1000 (GE Healthcare) or by a Leica TCS SP5 confocal microscope system (Leica Microsystems). At least 500 cells were counted for cleaved Caspase-3. […]

Data set [3] has as its system MCF-7 and MDA-MB-361 cell lines. In words: 2-NBDG glucose uptake in breast cancer cell lines. To be noted: breast cancer cell lines that express BTK-C; LFM-A13 for 24 hours. It counts as cell-based, human. How it is done: (§1) FIG. 15A-15D. BTK-C promotes glucose uptake. […] Immunofluorescence pictures were taken in INCELL-1000; (15d) Fluorescence intensity was quantified in right. […] (15a) The effect of BTK-C on glucose uptake in breast cancer cell lines. MCF-7 and MDA-MB-361 cell lines were treated as in (15c). (15b) Fluorescence intensity shown at right panel, *p<0.01.

Another data set deals with 10A-BTK-C cells. In words: 2-NBDG glucose uptake in MCF-10A cells over-expressing BTK-C. Type of data set: cell-based, human. To be noted: LFM-A13 for 24 hours. As for the experimental part: as §1
The test system of data set [4] is MCF-10A cells over-expressing BTK-C. The following applies: 35 μM LFM-A13 for 24.
Data set [5] concerns SK-Br-3 Her2/neu positive breast cancer cells. In words: SKBR3 cell number after 72 hours with or without EGF. Type of data set: cell-based, human. To be noted: 50 ng/ml EGF.
Data set [6] deals with HER2, AKT and ERK phosphorylation. In words: Immunoblots of HER2, AKT and ERK phosphorylation in SKbr3 cells with or without EGF. Type of data set: cell-based, human. To be noted: 1 μM, EGF 50 ng/ml, 3 hours.
A further data set relates to BTK-C-flag protein. In words: BTK-C-flag protein knockdown by immunoblot in HEK 293T cells with BTK-C specific siRNAs. It counts as cell-based, human. To be noted: transfected HEK 293T cells. How it is done:
(§2) FIG. 12A-12D. The BTK-C gene produces an 80 kD product. (12a) A schematic representation showing the domains of the BTK-A and predicted BTK-C protein. (12b) Total lysate from breast lines and Namalwa B-cells subjected to immunoblotting and probed with an anti-BTK antibody (BD Transduction Laboratory, 611116). (12c) HEK293 cells co-transfected with a BTK-C flag vector and either BTK-C siRNAs or Non-Target siRNA. Total lysate was prepared 96 hrs post transfection and was used for immunoblotting with anti-Flag antibody. (12d) BT474 cells were transfected with two BTK-C specific siRNAs, non-target siRNA as a control and co-transfected with GFP to mark transfected cells. Transfected cells were counted at 24 h and 96 h and the 96 hr to 24 hr ratio was calculated and expressed as % of the control.

The test system of data set [7] is BT474 cells. In words: BT474 viability after BTK-C specific siRNAs (GFP-marked cell counts, 96 h to 24 h ratio). It counts as cell-based, human. How it is done:
as §2

We go through 5 compounds from patent US10421820B2, “Bruton's tyrosine kinase as anti-cancer drug target” (The Research Foundation for The State University of New York, priority 2008, dated 2019).

“Also recorded” adds a separate entry of the source.

In the case of `C=CC(=O)Nc1cccc(Nc2nc(Nc3ccc(OCCOC)cc3)ncc2F)c1` [AVL-292], in data set [1], the EGFR family activation entry is given as “has no effect on EGFR family activation”; the “NRG- and EGF-dependent growth factor-driven resistance to lapatinib” value is “prevents NRG- and EGF-dependent growth factor-driven resistance to lapatinib”.

In the case of `C=CC(=O)N1CCC[C@@H](n2nc(-c3ccc(Oc4ccccc4)cc3)c3c(N)ncnc32)C1` [Ibrutinib], the “tumor volumes smaller than vehicle control” value with SKBR3 xenograft was 45%. The “decrease of non-lung metastases” value with MDA-MB-231 cells stood at 3 fold.

Consider `C/C(O)=C(\C#N)C(=O)Nc1cc(Br)ccc1Br` [LFM-A13], for which the “phosphorylation of both the BTK-A and BTK-C proteins” value with BTK-A and BTK-C proteins (35 μM LFM-A13 for 48 h) is “significantly impedes phosphorylation”. Besides, the “phosphorylation of BTK-A and BTK-C proteins (pY223)” value in the data set with BTK-A and BTK-C proteins (100 μM LFM-A13 for 45 mins) is recorded as “severely impeded phosphorylation; also recorded: reduces phosphorylation of BTK”. The “increase of apoptosis levels compared to control” value is on record as 8% in the data set on BT474 cells [2] (25 uM LFM-A13, BT474 cells) and “six fold” in the data set with BT474 cells [2] (35 μM LFM-A13, BT474 cells, 48 h). Besides, the “glucose uptake (2-NBDG fluorescence)” value in data set [3] is given as “inhibits glucose uptake”; in the data set with 10A-BTK-C cells, “inhibited”. The “acquired resistance to Doxorubicin (1 μM)” value in data set [4] is reported as “abolishes the acquired resistance to Doxorubicin”.

As for `CS(=O)(=O)CCNCc1ccc(-c2ccc3ncnc(Nc4ccc(OCc5cccc(F)c5)c(Cl)c4)c3c2)o1` [Lapatinib], the “effect of EGF treatment on drug activity (cell number)” value in [5] was “EGF treatment counteracts lapatinib to a much larger degree than PCI-32765”. For the same compound, the “ERK activation in the presence of EGF” value in data set [6] is “EGF counteracts lapatinib's effect, causing ERK re-activation”.

Regarding “siRNA2: BTK-C specific siRNA, sense SEQ ID NO: 68, antisense SEQ ID NO: 69 (sense CAACAAAUGGUUAUUGGAUUU; antisense AUCCAAUAACCAUUUGUUGUU; chemistry not given here; listed as Homo sapiens)”, the BTK-C-flag protein expression result in the data set with BTK-C-flag protein is “reduce BTK-C-flag protein expression”. The “viability of BT474 cells” value in the data set with BT474 cells [7] is listed as “decrease the viability”.
